# From ChEMBL document CHEMBL1137256, “Iminosugars as potential inhibitors of glycogenolysis: structural insights into the molecular basis of glycogen phosphorylase inhibition” (J Med Chem, 2006)
# Active and inactive are the calls of the source. The rule behind the calls is not given here.
# How the values were obtained:
# Hepatocyte [1] = experiment: cells; conditions: Homo sapiens
# Description: Inhibition of glucagon-stimulated glycogen degradation in hepatocytes
# Hepatocyte [2] = experiment: cells; conditions: Homo sapiens; remark: listed apart in the source
# Description: Inhibition of glycogen degradation in hepatocytes
# [3] = target: T1, Glycogen phosphorylase, liver form (Rattus norvegicus, UniProt P09811); experiment: Inhibition of phosphorylated form of rat liver glycogen phosphorylase
# T1 sequence (P09811 whole entry): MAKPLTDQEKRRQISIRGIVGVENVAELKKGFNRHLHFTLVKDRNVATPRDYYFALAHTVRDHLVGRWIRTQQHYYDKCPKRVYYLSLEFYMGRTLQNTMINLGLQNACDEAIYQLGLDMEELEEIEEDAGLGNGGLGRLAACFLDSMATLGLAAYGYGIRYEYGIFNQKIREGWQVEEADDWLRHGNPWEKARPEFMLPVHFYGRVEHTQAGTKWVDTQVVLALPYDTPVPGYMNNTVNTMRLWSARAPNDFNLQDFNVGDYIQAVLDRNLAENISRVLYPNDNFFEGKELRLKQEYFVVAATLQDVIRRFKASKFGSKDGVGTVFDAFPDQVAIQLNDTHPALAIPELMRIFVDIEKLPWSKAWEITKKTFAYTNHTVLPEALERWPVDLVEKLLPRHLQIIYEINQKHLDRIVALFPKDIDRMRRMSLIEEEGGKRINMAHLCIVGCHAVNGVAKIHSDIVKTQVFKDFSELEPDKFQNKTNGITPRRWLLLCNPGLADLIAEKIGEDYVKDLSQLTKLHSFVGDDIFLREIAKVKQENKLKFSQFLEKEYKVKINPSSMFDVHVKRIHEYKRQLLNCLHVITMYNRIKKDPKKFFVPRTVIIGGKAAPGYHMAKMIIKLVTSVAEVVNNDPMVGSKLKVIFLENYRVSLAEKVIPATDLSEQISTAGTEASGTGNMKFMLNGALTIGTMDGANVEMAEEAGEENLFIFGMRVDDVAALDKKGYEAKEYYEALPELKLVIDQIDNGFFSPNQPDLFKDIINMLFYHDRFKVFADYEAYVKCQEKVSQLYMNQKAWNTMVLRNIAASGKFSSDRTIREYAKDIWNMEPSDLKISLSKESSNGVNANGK
# Mus musculus = species: Mus musculus; experiment: Antihyperglycemic activity in obese mouse; format: functional, organism-based
# Liver = experiment: Inhibition of liver […]; format: functional, tissue-based; conditions: Homo sapiens
smiles,measurement,setting,value
OC[C@H]1CNC[C@@H](O)[C@@H]1O [AFEGOSTAT],IC50,Hepatocyte [1],2000 nM
same,IC50,Hepatocyte [2],3000 nM
OC[C@H]1CN(CCCc2ccccc2)C[C@@H](O)[C@@H]1O,IC50,[3],1220 nM
OC[C@H]1NC[C@@H](O)[C@@H]1O,Activity,Mus musculus,Active
same,Activity,Liver,Active
